Data from the supplement of paper PMC8671470.

Assays:
Test in all cases: cell viability (% survival relative to DMSO control, bortezomib = 0%); higher = less cytotoxic
Conditions in all cases: 72 h
[1] = system: KG-1
Method in brief: (§1)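 In 384-well plates pre-printed with compounds at 1, 10, 100, 1000 or 10000 nM, duplicate wells received cells from 10 AML and 5 CML lines at densities within the linear growth range. The plates stayed at 37 °C with 5% CO2 for 72 h before CellTiter-Glo luminescence was recorded. Each entry is averaged percent survival. Scaling placed vehicle at 100% and a 10 µM positive control at 0%.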

[2] = system: THP-1
Method in brief: as §1

[3] = system: BV-173
Method in brief: as §1

[4] = system: LAMA-84
Method in brief: as §1

[5] = system: Mono-Mac-6
Method in brief: as §1

[6] = system: NOMO-1
Method in brief: as §1

[7] = system: K-562
Method in brief: as §1

[8] = system: SHI-1
Method in brief: as §1

[9] = system: ML-2
Method in brief: as §1

[10] = system: MV4-11
Method in brief: as §1

`NS(=O)(=O)c1ccc([N+](=O)[O-])cc1` [4-Nitrobenzenesulfonamide] showed a cell viability ([1]; 1 nM) of 107%, a cell viability ([1]; 10 nM) of 101% and a cell viability ([1]; 100 nM) of 92.4%. The cell viability ([1]; 1000 nM) was 96.1%, the cell viability ([1]; 10000 nM) was 92.3% and the cell viability ([2]; 1 nM) was 111%. For the same compound, the cell viability ([2]; 10 nM) was 101%, the cell viability ([2]; 100 nM) was 100% and the cell viability ([2]; 1000 nM) was 104%. The cell viability ([2]; 10000 nM) was 90.7%, the cell viability ([3]; 1 nM) was 101% and the cell viability ([3]; 10 nM) was 95%. It also gave a cell viability ([3]; 100 nM) of 105%, a cell viability ([3]; 1000 nM) of 97.8% and a cell viability ([3]; 10000 nM) of 86.1%. For the same compound, the cell viability ([4]; 1 nM) was 99.5%, the cell viability ([4]; 10 nM) was 95.1% and the cell viability ([4]; 100 nM) was 103%. The cell viability ([4]; 1000 nM) was 95.4%, the cell viability ([4]; 10000 nM) was 98.6% and the cell viability ([5]; 1 nM) was 101%. For the same compound, the cell viability ([5]; 10 nM) was 97.3%, the cell viability ([5]; 100 nM) was 98.1% and the cell viability ([5]; 1000 nM) was 111%. For the same compound, the cell viability ([5]; 10000 nM) was 89.8%, the cell viability ([6]; 1 nM) was 101% and the cell viability ([6]; 10 nM) was 105%. For the same compound, the cell viability ([6]; 100 nM) was 98.5%, the cell viability ([6]; 1000 nM) was 103% and the cell viability ([6]; 10000 nM) was 98.3%. The cell viability ([7]; 1 nM) was 103%, the cell viability ([7]; 10 nM) was 105% and the cell viability ([7]; 100 nM) was 97.1%. The cell viability ([7]; 1000 nM) was 94.8%, the cell viability ([7]; 10000 nM) was 100% and the cell viability ([8]; 1 nM) was 102%. The cell viability ([8]; 10 nM) was 90.7%, the cell viability ([8]; 100 nM) was 102% and the cell viability ([8]; 1000 nM) was 100%. The cell viability ([8]; 10000 nM) was 93.8%, the cell viability ([9]; 1 nM) was 103% and the cell viability ([9]; 10 nM) was 111%. The cell viability ([9]; 100 nM) was 97.3%, the cell viability ([9]; 1000 nM) was 102% and the cell viability ([9]; 10000 nM) was 89.6%. The cell viability ([10]; 1 nM) was 102%, the cell viability ([10]; 10 nM) was 93.4% and the cell viability ([10]; 100 nM) was 115%. The cell viability ([10]; 1000 nM) was 94.3% and the cell viability ([10]; 10000 nM) was 114%.
